{
  "source": "patent US4810635A",
  "about": "“Specific binding assays employing label analog to reduce sample interferences” (Miles Inc., priority 1986, dated 1989)",
  "key": {"[1]": {"tested_on": "riboflavin-binding monoclonal antibody (IgGλ monoclonal anti-flavin antibody) in the serum of a patient with multiple myeloma", "details": "cited from earlier work; for binding to the antibody relative to riboflavin: competitive-binding studies with flavin analogs and [14C]-labeled riboflavin"}, "[2]": {"target": "apoglucose oxidase (Aspergillus niger, UniProt P13006)", "sequence (P13006 23-605 limits assumed)": "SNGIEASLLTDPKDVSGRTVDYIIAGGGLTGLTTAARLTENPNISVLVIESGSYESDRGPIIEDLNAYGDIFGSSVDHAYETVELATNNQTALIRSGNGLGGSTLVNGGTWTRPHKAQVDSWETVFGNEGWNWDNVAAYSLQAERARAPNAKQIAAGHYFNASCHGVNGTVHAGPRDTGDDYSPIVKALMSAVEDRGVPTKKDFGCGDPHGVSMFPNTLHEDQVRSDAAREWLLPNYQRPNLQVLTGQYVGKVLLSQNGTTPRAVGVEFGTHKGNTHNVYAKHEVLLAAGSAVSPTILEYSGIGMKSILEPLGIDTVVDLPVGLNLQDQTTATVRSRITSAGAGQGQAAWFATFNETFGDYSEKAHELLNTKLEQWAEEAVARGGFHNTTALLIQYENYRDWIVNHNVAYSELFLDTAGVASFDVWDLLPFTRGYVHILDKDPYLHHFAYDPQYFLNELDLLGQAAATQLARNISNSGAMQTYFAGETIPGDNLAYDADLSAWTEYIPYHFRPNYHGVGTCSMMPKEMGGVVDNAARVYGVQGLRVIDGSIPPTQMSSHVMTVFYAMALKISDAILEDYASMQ", "assay": "hCG ARIS assay: recombination of hCG-FAD conjugate with apoglucose oxidase, with or without FMN", "format": "biochemical", "details": "10 μM FMN, 5 nM hCG-FAD conjugate, no serum", "protocol": "In order to study the effect of flavin analogs in low level protein ARIS assays, a series of experiments were performed. In all cases the following manual assay protocol was employed. FAD-conjugate was incubated in 2.0 mL of assay mixture containing 10 mM DHSA, 0.1M glucose, 25 μg/mL horseradish peroxidase, 0.1% bovine serum albumin (BSA) in 0.1 M sodium phosphate at pH 7.0 with or without 5% serum and/or 10 μM FMN. After 30 minutes at 37° C., 100 μL of apoglucose oxidase/antiglucose oxidase (3 μM apoenzyme) in 50% glycerol and 4 μM 4-aminoantipyrene was added to initiate the reaction. Following a 30 minute assay incubation step at 37° C. the absorbance was measured at 520 nm.\nTwo controls were performed during this experiment: (1) conjugate, no serum, no FMN (maximum activity) and (2) conjugate, no serum, plus FMN (assess FMN effect on maximum activity)."}},
  "data": [
    {"smiles": "Cc1cc2nc3c(=O)[nH]c(=O)nc-3n(C[C@H](O)[C@H](O)[C@H](O)COP(=O)(O)OP(=O)(O)OC[C@H]3O[C@@H](n4cnc5c(N)ncnc54)[C@H](O)[C@@H]3O)c2cc1C", "note": "[FAD, flavin adenine dinucleotide]", "values": [
      {"measurement": "binding to the antibody relative to riboflavin", "setting": "[1]", "value": "bound strongly to the antibody but not as tightly as FMN or riboflavin"}
    ]},
    {"smiles": "Cc1cc2nc3c(=O)[nH]c(=O)nc-3n(C[C@H](O)[C@H](O)[C@H](O)CO)c2cc1C", "note": "[riboflavin]", "values": [
      {"measurement": "Kd", "setting": "[1]; high affinity (reversible) flavin-binding site", "value": 0.6, "unit": "nM"}
    ]},
    {"smiles": "Cc1cc2nc3c(=O)[nH]c(=O)nc-3n(C[C@H](O)[C@H](O)[C@H](O)COP(=O)(O)O)c2cc1C", "note": "[FMN, flavin mononucleotide]", "values": [
      {"measurement": "inhibition at 10 µM", "setting": "[2]; read-out: decrease of the maximum activity of the conjugate", "value": "~9", "unit": "%"},
      {"measurement": "activity at 10 µM", "setting": "[2]; relative to conjugate without FMN (maximum activity)", "value": 91, "unit": "%"},
      {"measurement": "binding to the antibody relative to riboflavin", "setting": "[1]", "value": "bound equally well to this antibody as riboflavin"}
    ]}
  ]
}
